Test results published in patent publication US20190389903A1, “INSULIN A-CHAIN DERIVED PEPTIDE FRAGMENT AND PHARMACEUTICAL COMPOSITION FOR PREVENTING OR TREATING DIABETES OR DIABETIC WOUNDS, CONTAINING THE SAME” (SUPADELIXIR INC., priority 2017, published 2019).

What was measured:
Type in all cases: cell-based
[1] = tested on: physical interaction between Grb2 and SOS1; test: Insulin-like activity: Grb2-SOS1 physical interaction by PLA (proximity ligation assay) in HaCaT cells; details: 1 μM, 5 min, Humulin R at same concentration, FIG. 1
Procedure: When the insulin signal is transmitted into cells, the physical interaction between Grb2 and SOS1 is increased. After treatment of the cells with the peptide of the present invention, the physical interaction between Grb2 and SOS1 was measured through PLA (proximity ligation assay) and thus insulin-like activity was evaluated. 4.5×10^4 HaCaT cells (CLS 300493) were seeded in a DMEM serum medium in each well of a 24-well microplate and cultured in a 5% CO2 incubator at 37° C. for 24 hr, after which the peptide solution of Example 2 was added such that the peptide concentration of SEQ ID NOS: 1 to 6 in the medium was 1 μM, followed by incubation for 5 min under the same conditions. As a positive control, Humulin R was treated at the same concentration. A control received no treatment. The cells of each well were washed with PBS, treated with 2% formaldehyde for 15 min to thus fix the same, and then treated with 0.1% TritonX-100 for 5 min to thus increase antibody permeability into the cells. […] The physical interactions of the Grb2 and SOS1 antibodies were quantified by measuring the PLA signals detected in individual cells using a confocal laser microscope (Olympus FluoView FW1000; Olympus, Tokyo, Japan).

insulin receptor [2] = test: Immunofluorescence analysis of endocytosis of FITC-conjugated peptide in HaCaT cells; details: FITC-conjugated peptide 1 μM, 5, 15, 30, 60 min tested, FIG. 2A
Chain of insulin receptor (P06213 28-758 limits assumed): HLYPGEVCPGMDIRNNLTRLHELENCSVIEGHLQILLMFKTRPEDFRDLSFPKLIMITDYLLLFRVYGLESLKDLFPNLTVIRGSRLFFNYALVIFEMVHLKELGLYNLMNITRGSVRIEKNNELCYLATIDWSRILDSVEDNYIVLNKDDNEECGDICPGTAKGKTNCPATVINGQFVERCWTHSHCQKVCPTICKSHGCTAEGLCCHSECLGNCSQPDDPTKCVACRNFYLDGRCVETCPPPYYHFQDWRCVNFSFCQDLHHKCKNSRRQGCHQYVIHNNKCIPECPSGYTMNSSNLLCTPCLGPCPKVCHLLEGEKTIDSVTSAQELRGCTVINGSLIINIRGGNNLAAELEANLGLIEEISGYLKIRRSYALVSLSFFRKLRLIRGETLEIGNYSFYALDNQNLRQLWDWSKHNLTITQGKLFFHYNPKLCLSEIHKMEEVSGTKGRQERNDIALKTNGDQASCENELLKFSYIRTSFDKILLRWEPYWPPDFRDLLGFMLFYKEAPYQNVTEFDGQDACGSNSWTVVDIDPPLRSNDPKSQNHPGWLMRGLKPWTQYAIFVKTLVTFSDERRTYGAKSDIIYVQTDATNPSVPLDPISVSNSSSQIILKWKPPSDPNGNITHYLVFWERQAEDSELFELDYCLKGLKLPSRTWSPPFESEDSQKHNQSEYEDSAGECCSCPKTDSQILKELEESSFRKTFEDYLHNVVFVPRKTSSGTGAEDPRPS
Chain of insulin receptor (P06213 763-1382 partner limits assumed): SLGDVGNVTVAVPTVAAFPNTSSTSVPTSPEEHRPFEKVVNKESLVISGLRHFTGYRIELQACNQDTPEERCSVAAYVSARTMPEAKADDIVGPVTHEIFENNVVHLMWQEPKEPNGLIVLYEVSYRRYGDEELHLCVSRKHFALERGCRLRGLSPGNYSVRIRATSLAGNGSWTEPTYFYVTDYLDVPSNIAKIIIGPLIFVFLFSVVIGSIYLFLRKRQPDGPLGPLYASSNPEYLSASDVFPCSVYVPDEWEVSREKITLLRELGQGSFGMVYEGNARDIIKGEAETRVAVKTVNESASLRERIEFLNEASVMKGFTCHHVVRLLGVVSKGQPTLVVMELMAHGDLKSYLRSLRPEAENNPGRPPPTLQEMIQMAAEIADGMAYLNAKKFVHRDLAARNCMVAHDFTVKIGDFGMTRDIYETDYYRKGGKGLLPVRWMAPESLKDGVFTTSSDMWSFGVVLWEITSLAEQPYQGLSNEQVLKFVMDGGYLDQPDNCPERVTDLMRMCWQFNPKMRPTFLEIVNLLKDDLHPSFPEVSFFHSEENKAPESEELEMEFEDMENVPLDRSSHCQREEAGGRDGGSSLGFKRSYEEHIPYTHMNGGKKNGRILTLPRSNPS
Procedure: In order to evaluate whether, like insulin, the peptide of the present invention induces endocytosis by binding to the insulin receptor, immunofluorescence analysis was performed. A fluorescent material (FITC) was conjugated to the peptide of SEQ ID NO: 3. HaCaT cells (CLS 300493) were pretreated in the same manner as in Test Example 1, added with the peptide solution of SEQ ID NO: 3 having the fluorescent material conjugated thereto such that the final concentration was 1 μM, and then treated for 5 min, 15 min, 30 min, and 60 min. The cells were washed three times with a PBS solution and then mounted onto a slide to give a test specimen, which was then observed using a confocal laser microscope (Olympus FluoView FW1000; Olympus, Tokyo, Japan). […] The insulin binds to the insulin receptor in the cells, followed by endocytosis (internalization) and then degradation.

insulin receptor [3] = test: RNA interference: endocytosis after insulin receptor siRNA transfection in HaCaT cells; details: FITC-conjugated peptide 1 μM, 5 min, siRNA 10 nM or 30 nM vs no treatment, FIG. 2B
Procedure: Based on the above test results, in order to determine whether the effect of the peptide of the present invention on endocytosis is mediated by the insulin receptor, RNA interference was analyzed. HaCaT cells (CLS 300493) were cultured in a DMEM serum medium until the cells reached 50-60% confluency, followed by transient transfection using the insulin receptor siRNA (Santa Cruz, Calif., USA) (no treatment, 10 nM treatment, or 30 nM treatment) and lipofectamine RNAiMAX (Invitrogen) in accordance with the manufacturer's protocol to thus inhibit the insulin receptor expression, after which the cells were treated for 5 min using the peptide of SEQ ID NO: 3 having the fluorescent material conjugated thereto at a concentration of 1 μM. The fluorescence intensity of each group was observed using a confocal laser microscope (Olympus FluoView FW1000; Olympus, Tokyo, Japan).

HaCaT cells [4] = test: Cell migration test (Culture-Insert 2 Well); details: peptide 0.01, 0.1, 1 μM or Humulin R 1 μM for 5 min, observed after 10 hr and 13 hr, FIG. 3
Procedure: For cell migration testing, a Culture-Insert 2 Well (Ibidi™), having two separate culture spaces therein, was used. When cells are cultured on the above plate, the cells are attached to both sides, between which an empty space is formed, followed by removal of the insert well and further culturing, whereby the cells of the two sides migrate to the empty space of the plate. HaCaT cells (CLS 300493) were cultured on the above plate until the cells reached 90% confluency and then the insert well was removed, after which the cells were treated for 5 min with the peptide of SEQ ID NO: 3 (0.01 μM, 0.1 μM, 1 μM) or Humulin R (1 μM), and washed with PBS, after which the medium was replaced with a cell culture medium (DMEM serum medium). After 10 hr and 13 hr, cell migration was observed through a phase contrast microscope.

HaCaT cells [5] = test: Cell proliferation test (CCK-8); details: 0.1, 1 and 10 μM in serum-free media, 24, 48 and 72 hr, FIG. 4
Procedure: For cell proliferation testing, 5×10^3 HaCaT cells (CLS 300493) were seeded in each well of a 96-well plate, and then treated with a solution containing the peptide of SEQ ID NO: 3 (total volume: 90 μl) such that the concentrations in serum-free media were 0.1, 1 and 10 μM. Cell proliferation for 24, 48 and 72 hr was observed using a microplate reader (Versa Max, USA). For measurement, treatment was performed for 2 hr using 10 μl of a CCK-8 (cell counting kit-8) solution at the same time every day.

HaCaT cells [6] = test: 2-NBDG glucose uptake analysis; details: 0.001, 0.01, 0.1 μM in serum-free media, 5 min, FIG. 5
Procedure: 2-NBDG glucose, which is a fluorescent deoxyglucose analogue, is introduced into cells by a glucose transporter, like glucose, but accumulates without actual metabolism, and thus the extent of glucose uptake may be determined based on the accumulated amount of fluorescence. A 2-NBDG glucose uptake kit (Biovision) was used for 2-NBDG glucose uptake analysis. Specifically, 3×10^4 HaCaT cells (CLS 300493) were seeded in each well of a 24-well plate, cultured in a 5% CO2 incubator at 37° C. for 24 hr with a DMEM serum medium, washed with PBS, and treated with the peptide of SEQ ID NO: 3 and Humulin R such that the concentrations in serum-free media were 0.001 μM, 0.01 μM, and 0.1 μM, followed by incubation for 5 min. A mixed solution of a 2-NBDG reagent and a glucose uptake enhancer was prepared in accordance with the manufacturer's protocol, after which the cells were treated therewith for 1 hr, washed with the supplied cold 1× analysis buffer, and observed using a confocal laser microscope (Olympus FluoView FW1000; Olympus, Tokyo, Japan).

insulin receptor [7] = test: 2-NBDG glucose uptake after inhibition of insulin receptor expression using siRNA; details: peptide 1 μM, 5 min; siRNA 10 nM or 30 nM vs no treatment; HaCaT cells; FIG. 6
Procedure: Based on the above test results, in order to evaluate whether, like insulin, the peptide of the present invention enhances glucose uptake through the insulin receptor, insulin receptor expression was inhibited using siRNA, after which 2-NBDG glucose uptake testing was performed. HaCaT cells (CLS 300493) were cultured in a DMEM serum medium until the cells reached 50-60% confluency, followed by transient transfection using the insulin receptor siRNA (Santa Cruz, Calif., USA) (no treatment, 10 nM treatment, or 30 nM treatment) and lipofectamine RNAiMAX (Invitrogen) in accordance with the manufacturer's protocol to thus inhibit insulin receptor expression, after which the cells were treated for 5 min using the peptide of SEQ ID NO: 3 at a concentration of 1 μM. A mixed solution of a 2-NBDG reagent and a glucose uptake enhancer was prepared in accordance with the manufacturer's protocol, after which the cells were treated therewith for 1 hr, washed with the supplied cold 1× analysis buffer, and observed using a confocal laser microscope (Olympus FluoView FW1000; Olympus, Tokyo, Japan).

[8] = tested on: glucose transporter (GLUT4); test: Translocation of glucose transporter to cell membrane by immunofluorescence; details: HaCaT cells; 0.001, 0.01 and 0.1 μM in serum-free DMEM, 5 min; FIG. 7
Procedure: In addition, the translocation of the glucose transporter to the cell membrane in HaCaT cells was evaluated through immunofluorescence analysis. Specifically, HaCaT cells (CLS 300493) were treated with the peptide of SEQ ID NO: 3 and Humulin R (positive control) at concentrations of 0.001, 0.01 and 0.1 μM in a serum-free DMEM medium for 5 min. The cells were washed with a PBS solution, treated with a GLUT4 antibody (Santa Cruz, Calif., USA) for 1 hr, treated with rhodamine red for 40 min, and observed using a confocal laser microscope (Olympus FluoView FW1000; Olympus, Tokyo, Japan).

Cys-Ser-Leu (CSL; Peptide fragment) [SEQ ID NO: 3]
Grb2/SOS1 antibody interaction (PLA signals) compared to positive control Humulin R [1]: significantly higher antibody interaction than the positive control
Time after treatment at which highest endocytosis (fluorescence) was observed (insulin receptor [2]): 5 min
Incidence of endocytosis in group transiently transfected with insulin receptor siRNA (insulin receptor [3]): reduced
Cell migration (HaCaT cells [4]): increased in a concentration-dependent manner
Cell proliferation (HaCaT cells [5]): increased in a concentration-dependent manner
Glucose uptake (2-NBDG) (HaCaT cells [6]): increased in a concentration-dependent manner
Glucose uptake (2-NBDG) in group transiently transfected with insulin receptor siRNA (insulin receptor [7]): reduced
Amount of glucose transporter (GLUT4) in the cell membrane [8]: increased in the cell membrane in a concentration-dependent manner

Humulin R: recombinant insulin preparation (injection), used as positive control [reference compound]
Cell migration (HaCaT cells [4]): increased
Glucose uptake (2-NBDG) (HaCaT cells [6]): increased in a concentration-dependent manner
Amount of glucose transporter (GLUT4) in the cell membrane [8]: increased in the cell membrane in a concentration-dependent manner
